One experiment has as its system HRMEC cells. The experiment is described as follows: In vitro cell proliferation assay (MTT), HRMEC. Type of experiment: cell-based. The conditions noted are these: 72 h, read-out: EC50, anti-proliferative activity. How it is done:
(§1) 2) In Vitro Cell Proliferation Assays (Table 22 to Table 35)
(§2) Cancer cell lines (5×10^3 cells per well) or HUVEC (1×10^4 cells per well) or HRMEC (1×10^4 cells per well) were distributed in 96-well plates and incubating in duplicate with escalating concentrations (10 nM to 3 μM) of compounds for 72 hr. Cell proliferation was measured using MTT (3[4,5-dimethylthiazol-2-yl]-2,5-diphenyltetrazolium bromide).

For the next experiment, the system named is HT29 cell line. Briefly: In vitro cell proliferation assay (MTT), HT29. The conditions noted are these: Homo sapiens, HT-29, 72 h; read-out: EC50, anti-proliferative activity. Type of experiment: cell-based. On the procedure: as §1, §2
In the next experiment the test system is HepG2 cell line. The experiment is described as follows: In vitro cell proliferation assay (MTT), HepG2. The conditions noted are these: Homo sapiens, HepG2, 72 h; read-out: EC50, anti-proliferative activity. Type of experiment: cell-based. The essentials: (§3)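 Seed cells (HRMEC 1×10^4/well; cancer lines 5×10^3/well), add compounds at escalating concentrations from 10 nM to 3 μM in duplicate, incubate 72 hr, then measure proliferation with MTT.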

The test system of a further experiment is HuH6 Clone 5 cell line. Briefly: In vitro cell proliferation assay (MTT), HuH6 Clone 5. The conditions noted are these: HUH-6-clone5, 72 h; read-out: EC50, anti-proliferative activity. Format: cell-based. How it is done: as §1, §2
A further experiment relates to H1975 cell line. The experiment is described as follows: In vitro cell proliferation assay (MTT), H1975. Type of experiment: cell-based. The conditions noted are these: Homo sapiens, NCI-H1975, 72 h; read-out: EC50, anti-proliferative activity. How it is done: as §1, §2
A further experiment deals with HuCCT1 cell line. Briefly: In vitro cell proliferation assay (MTT), HuCCT1. Type of experiment: cell-based. The conditions noted are these: Homo sapiens, HuCCT-1, 72 h; read-out: EC50, anti-proliferative activity. On the procedure:
as §1, §2

A further experiment has as its system HUVEC. Briefly: In vitro cell proliferation assay (MTT), HUVEC. Type of experiment: cell-based. The conditions noted are these: Homo sapiens, 72 h, read-out: EC50, anti-proliferative activity. An outline of the steps: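 HUVEC cells were plated at 1×10^4 cells per well in 96-well plates and exposed in duplicate to increasing compound concentrations from 10 nM to 3 μM for 72 hr. Proliferation was then quantified with MTT (3[4,5-dimethylthiazol-2-yl]-2,5-diphenyltetrazolium bromide) to determine anti-proliferative activity.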

Another experiment has as its target T1, EGFR (ErbB1) T790M L858R (Homo sapiens, UniProt P00533, L858R/T790M).
T1 construct: purchased Invitrogen
Briefly: In vitro kinase assay (Z'-LYTE), EGFR (ErbB1) T790M L858R. Type of experiment: biochemical. The conditions noted are these: read-out: % of inhibition of the kinase compared to the control. How it is done: 1) In Vitro Kinase Assays (Table 10 to Table 21)
The inhibitory activity of the compounds on several kinases including BRAF, EGFR (ErbB1), EGFR (ErbB1) T790M L858R, FGFR2, KDR (VEGFR2), PDGFRA (PDGFR alpha), SRC and other was evaluated by Invitrogen using the Z′-LYTE® technology. Briefly, the Z′-LYTE® biochemical assay employs a fluorescence-based, coupled-enzyme format and is based on the differential sensitivity of phosphorylated and non-phosphorylated peptides to proteolytic cleavage. The peptide substrate is labeled with two fluorophores—one at each end—that make up a FRET pair. A ratiometric method, which calculates the ratio (the Emission Ratio) of donor emission to acceptor emission after excitation of the donor fluorophore at 400 nm, is used to quantitate reaction progress.
The compounds are screened in 1% DMSO (final) in the well. For 10 point titrations, 3-fold serial dilutions are conducted from the starting concentration. All Peptide/Kinase Mixtures are diluted to a 2× working concentration in the appropriate Kinase Buffer. All ATP Solutions are diluted to a 4× working concentration in Kinase Buffer (50 mM HEPES pH 7.5, 0.01% BRIJ-35, 10 mM MgCl2, 1 mM EGTA). ATP Km apparent is previously determined using a Z′-LYTE® assay.
Each compound was incubated at a concentration of 100 nM (excepted to test the activity against ABL and ABL T315I for which the compounds were incubated at a concentration of 10 μM) and the tables 10 to 21 summarize the results obtained showing the inhibitory power of a compound.

Another experiment has as its target T2, EGFR (ErbB1) (Homo sapiens, UniProt P00533).
T2 construct: purchased Invitrogen
Briefly: In vitro kinase assay (Z'-LYTE), EGFR (ErbB1). Type of experiment: biochemical. The conditions noted are these: read-out: % of inhibition of the kinase compared to the control. An outline of the steps:
(§4)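 Peptide/kinase mix and ATP (at apparent Km) were combined in kinase buffer with compound at 100 nM, or 10 μM against ABL and its T315I mutant. Non-phosphorylated peptide was then proteolytically cleaved, and donor-to-acceptor emission ratio gave the extent of phosphorylation.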

The target of another experiment is T3, KDR (VEGFR2) (Homo sapiens, UniProt P35968).
T3 construct: purchased Invitrogen
The experiment is described as follows: In vitro kinase assay (Z'-LYTE), KDR (VEGFR2). The conditions noted are these: read-out: % of inhibition of the kinase compared to the control. Format: biochemical. The essentials:
as §4

The test system of the next experiment is HuH7 cell line. The experiment is described as follows: In vitro cell proliferation assay (MTT), HuH7. The conditions noted are these: Homo sapiens, Huh-7, 72 h; read-out: EC50, anti-proliferative activity. Format: cell-based. How it is done:
as §1, §2

In another experiment the target is T4, BRAF (Homo sapiens, UniProt P15056).
T4 construct: purchased Invitrogen
Briefly: In vitro kinase assay (Z'-LYTE), BRAF. Format: biochemical. The conditions noted are these: read-out: % of inhibition of the kinase compared to the control. An outline of the steps:
as §4

The subject of a further experiment is HeLa cell line. The experiment is described as follows: In vitro cell proliferation assay (MTT), HeLa. Type of experiment: cell-based. The conditions noted are these: Homo sapiens, read-out: EC50, anti-proliferative activity. On the procedure:
as §1, §2

The test system of the next experiment is BxPC-3 cell line. The experiment is described as follows: In vitro cell proliferation assay (MTT), BxPC-3. Format: cell-based. The conditions noted are these: Homo sapiens, BXPC-3, 72 h; read-out: EC50, anti-proliferative activity. How it is done:
as §1, §2

The target of another experiment is T5, PDGFRA (PDGFR alpha) (Homo sapiens, UniProt P16234).
T5 construct: purchased Invitrogen
The experiment is described as follows: In vitro kinase assay (Z'-LYTE), PDGFRA. Type of experiment: biochemical. The conditions noted are these: read-out: % of inhibition of the kinase compared to the control. An outline of the steps: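 FRET-based Z'-LYTE coupled-enzyme assay: kinase phosphorylates a dual-fluorophore peptide, unphosphorylated peptide is protease-cleaved, and donor/acceptor emission ratio after 400 nm excitation quantifies progress. Buffer 50 mM HEPES pH 7.5, 10 mM MgCl2, 1 mM EGTA, 0.01% BRIJ-35; 1% DMSO final. Single compound concentration: 100 nM, or 10 μM for ABL and ABL T315I.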

Another experiment relates to MDA-MB-231 cell line. Briefly: In vitro cell proliferation assay (MTT), MDA-MB-231. Type of experiment: cell-based. The conditions noted are these: Homo sapiens, MDA-MB-231, 72 h; read-out: EC50, anti-proliferative activity. An outline of the steps:
as §3

In another experiment the target is T6, SRC (Homo sapiens, UniProt P12931).
T6 construct: purchased Invitrogen
Briefly: In vitro kinase assay (Z'-LYTE), SRC. Format: biochemical. The conditions noted are these: read-out: % of inhibition of the kinase compared to the control. The essentials:
as §4

In the next experiment the test system is A549 cell line. The experiment is described as follows: In vitro cell proliferation assay (MTT), A549. Type of experiment: cell-based. The conditions noted are these: Homo sapiens, A549, 72 h; read-out: EC50, anti-proliferative activity. An outline of the steps: as §3
Another experiment has as its target T7, FGFR2 (Homo sapiens, UniProt P21802).
T7 construct: purchased Invitrogen
Briefly: In vitro kinase assay (Z'-LYTE), FGFR2. Format: biochemical. The conditions noted are these: read-out: % of inhibition of the kinase compared to the control. The essentials: as §4

Each structure is given as a SMILES string. Where two headings read alike, the source gives them in different places. A value given as a limit tells only on which side of the number the result lay.

The term EC50 denotes the midpoint of the concentration-response curve. As a reminder, the inhibition is the relative decrease from the control value, in per cent.

T1 sequence (P00533 25-1210 T790M/L858R): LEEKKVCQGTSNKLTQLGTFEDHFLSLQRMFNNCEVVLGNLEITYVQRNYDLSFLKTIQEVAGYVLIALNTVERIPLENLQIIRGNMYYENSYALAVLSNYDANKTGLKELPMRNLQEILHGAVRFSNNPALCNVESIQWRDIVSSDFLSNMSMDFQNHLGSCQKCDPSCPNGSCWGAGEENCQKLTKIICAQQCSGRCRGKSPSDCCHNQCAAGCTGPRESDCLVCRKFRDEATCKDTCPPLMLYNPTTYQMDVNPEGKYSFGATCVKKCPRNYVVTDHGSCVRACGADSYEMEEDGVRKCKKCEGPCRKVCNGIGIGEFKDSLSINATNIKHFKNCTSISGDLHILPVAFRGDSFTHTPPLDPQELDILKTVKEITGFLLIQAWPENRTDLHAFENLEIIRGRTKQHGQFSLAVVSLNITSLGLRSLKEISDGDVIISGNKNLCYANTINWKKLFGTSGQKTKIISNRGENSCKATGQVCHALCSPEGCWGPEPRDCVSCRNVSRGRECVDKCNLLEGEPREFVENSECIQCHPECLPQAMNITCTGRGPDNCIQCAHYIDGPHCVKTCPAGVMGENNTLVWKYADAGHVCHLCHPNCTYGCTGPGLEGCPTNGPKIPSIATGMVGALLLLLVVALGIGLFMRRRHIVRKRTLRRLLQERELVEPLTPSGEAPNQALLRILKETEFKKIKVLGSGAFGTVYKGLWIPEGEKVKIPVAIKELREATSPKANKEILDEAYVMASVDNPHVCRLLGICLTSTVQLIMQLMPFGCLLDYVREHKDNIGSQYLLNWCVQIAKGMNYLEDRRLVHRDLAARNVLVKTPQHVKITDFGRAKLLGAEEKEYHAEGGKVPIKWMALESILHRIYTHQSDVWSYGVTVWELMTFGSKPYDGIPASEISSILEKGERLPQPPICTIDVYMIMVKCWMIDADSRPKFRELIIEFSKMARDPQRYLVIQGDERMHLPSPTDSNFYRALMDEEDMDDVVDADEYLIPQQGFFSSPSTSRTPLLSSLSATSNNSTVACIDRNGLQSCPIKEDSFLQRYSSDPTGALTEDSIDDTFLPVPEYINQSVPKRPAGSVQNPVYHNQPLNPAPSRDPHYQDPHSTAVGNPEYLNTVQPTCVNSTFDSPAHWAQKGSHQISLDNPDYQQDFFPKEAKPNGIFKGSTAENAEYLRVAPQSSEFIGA
T6 sequence (P12931 whole entry): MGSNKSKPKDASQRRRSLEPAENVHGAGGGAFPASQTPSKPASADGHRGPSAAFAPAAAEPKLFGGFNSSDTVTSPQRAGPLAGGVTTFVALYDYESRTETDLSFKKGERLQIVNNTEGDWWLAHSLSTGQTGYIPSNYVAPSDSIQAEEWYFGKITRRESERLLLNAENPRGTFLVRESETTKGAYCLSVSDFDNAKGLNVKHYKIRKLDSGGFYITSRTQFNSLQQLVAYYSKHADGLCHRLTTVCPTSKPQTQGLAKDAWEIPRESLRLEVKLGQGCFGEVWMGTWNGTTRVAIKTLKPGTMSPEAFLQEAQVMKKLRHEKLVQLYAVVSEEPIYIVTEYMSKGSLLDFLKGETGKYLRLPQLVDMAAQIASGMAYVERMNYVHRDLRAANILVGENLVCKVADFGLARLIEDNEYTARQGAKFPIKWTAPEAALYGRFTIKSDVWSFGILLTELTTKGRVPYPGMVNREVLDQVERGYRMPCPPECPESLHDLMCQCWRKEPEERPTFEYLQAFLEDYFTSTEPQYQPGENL
T7 sequence (P21802 22-821): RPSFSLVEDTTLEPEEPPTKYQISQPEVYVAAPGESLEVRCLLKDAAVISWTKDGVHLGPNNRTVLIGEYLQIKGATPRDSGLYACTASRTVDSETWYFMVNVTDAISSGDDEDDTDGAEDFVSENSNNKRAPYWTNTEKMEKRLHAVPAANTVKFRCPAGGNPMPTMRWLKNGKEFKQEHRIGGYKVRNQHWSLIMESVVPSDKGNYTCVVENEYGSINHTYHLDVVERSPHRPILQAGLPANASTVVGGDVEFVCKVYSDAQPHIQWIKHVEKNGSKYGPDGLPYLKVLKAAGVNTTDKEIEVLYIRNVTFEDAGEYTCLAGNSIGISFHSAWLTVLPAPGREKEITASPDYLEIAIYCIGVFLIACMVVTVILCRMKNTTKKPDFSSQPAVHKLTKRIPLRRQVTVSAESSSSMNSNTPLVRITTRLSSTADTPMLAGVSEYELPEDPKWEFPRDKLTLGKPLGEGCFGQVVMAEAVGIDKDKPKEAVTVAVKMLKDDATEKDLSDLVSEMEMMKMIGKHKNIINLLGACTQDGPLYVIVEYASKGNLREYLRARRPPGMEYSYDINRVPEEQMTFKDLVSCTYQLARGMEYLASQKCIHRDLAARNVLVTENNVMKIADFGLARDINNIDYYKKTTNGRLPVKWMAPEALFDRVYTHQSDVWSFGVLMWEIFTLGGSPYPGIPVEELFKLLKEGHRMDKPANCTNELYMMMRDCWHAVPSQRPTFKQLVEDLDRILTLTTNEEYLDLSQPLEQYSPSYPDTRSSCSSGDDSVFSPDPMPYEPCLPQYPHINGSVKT
T4 sequence (P15056 whole entry): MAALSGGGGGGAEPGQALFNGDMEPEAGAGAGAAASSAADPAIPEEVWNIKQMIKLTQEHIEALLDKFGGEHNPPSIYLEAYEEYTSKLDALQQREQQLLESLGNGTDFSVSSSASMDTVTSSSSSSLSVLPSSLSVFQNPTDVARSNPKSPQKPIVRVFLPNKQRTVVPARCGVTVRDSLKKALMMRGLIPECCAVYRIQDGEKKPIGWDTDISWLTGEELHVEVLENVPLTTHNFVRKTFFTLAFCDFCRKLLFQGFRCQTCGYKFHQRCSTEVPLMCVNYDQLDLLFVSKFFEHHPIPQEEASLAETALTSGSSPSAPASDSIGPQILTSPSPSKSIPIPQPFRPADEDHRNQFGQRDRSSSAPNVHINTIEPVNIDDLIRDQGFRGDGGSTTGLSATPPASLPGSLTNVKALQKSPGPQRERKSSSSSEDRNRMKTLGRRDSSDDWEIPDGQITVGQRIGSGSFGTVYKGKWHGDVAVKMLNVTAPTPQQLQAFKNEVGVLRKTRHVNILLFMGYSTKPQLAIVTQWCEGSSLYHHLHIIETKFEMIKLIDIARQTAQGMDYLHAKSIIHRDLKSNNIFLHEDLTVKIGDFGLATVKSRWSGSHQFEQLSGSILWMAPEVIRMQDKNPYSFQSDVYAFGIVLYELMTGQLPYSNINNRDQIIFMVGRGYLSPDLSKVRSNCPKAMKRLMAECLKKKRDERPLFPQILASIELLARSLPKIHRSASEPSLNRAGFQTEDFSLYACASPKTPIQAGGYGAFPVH
T5 sequence (P16234 24-1089): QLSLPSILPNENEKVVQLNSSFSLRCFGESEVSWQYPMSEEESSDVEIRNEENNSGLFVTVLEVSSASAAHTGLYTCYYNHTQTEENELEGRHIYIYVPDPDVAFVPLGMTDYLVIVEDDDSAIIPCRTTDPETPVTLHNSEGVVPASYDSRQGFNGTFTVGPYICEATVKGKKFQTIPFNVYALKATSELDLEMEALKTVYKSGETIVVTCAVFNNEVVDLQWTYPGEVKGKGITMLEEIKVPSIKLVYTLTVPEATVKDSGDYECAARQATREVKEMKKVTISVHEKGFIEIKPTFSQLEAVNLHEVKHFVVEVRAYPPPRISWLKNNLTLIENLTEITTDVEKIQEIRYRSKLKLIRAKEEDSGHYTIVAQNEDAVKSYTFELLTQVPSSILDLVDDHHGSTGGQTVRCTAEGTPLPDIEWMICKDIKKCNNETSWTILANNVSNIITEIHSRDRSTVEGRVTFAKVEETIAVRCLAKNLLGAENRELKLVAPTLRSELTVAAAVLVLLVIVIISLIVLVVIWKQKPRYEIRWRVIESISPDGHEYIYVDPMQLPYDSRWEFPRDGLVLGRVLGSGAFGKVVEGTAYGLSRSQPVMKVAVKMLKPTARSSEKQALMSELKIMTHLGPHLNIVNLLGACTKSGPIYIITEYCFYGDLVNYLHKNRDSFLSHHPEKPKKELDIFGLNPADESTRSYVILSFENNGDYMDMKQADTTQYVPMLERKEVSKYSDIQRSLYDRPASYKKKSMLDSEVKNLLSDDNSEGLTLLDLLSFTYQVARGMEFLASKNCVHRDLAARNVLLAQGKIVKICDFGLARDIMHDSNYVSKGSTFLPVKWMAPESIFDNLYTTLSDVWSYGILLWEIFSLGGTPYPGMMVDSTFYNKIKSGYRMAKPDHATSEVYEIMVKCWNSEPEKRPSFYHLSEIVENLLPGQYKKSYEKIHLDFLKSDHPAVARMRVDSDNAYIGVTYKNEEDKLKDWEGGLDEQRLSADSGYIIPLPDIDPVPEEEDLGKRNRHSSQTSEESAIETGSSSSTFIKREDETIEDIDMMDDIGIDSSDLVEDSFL

Take `CC(=O)c1cc2cc(NCc3cc(NC(=O)c4ccc(CN5CCC(N(C)C)C5)c(C(F)(F)F)c4)ccc3C)cnc2[nH]1` (centres unmarked) [OR0718, N-{3-[(2-Acetyl-1H-pyrrolo[2,3-b]pyridin-5-ylamino)-methyl]-4-methyl-phenyl}-4-(3-dimethylamino-pyrrolidin-1-ylmethyl)-3-trifluoromethyl-benzamide]: the EC50 with HRMEC cells, in the experiment with HT29 cell line, with HepG2 cell line, with HuH6 Clone 5 cell line, with H1975 cell line and in the experiment on HuCCT1 cell line was 100 to 1000 nM in each case. Further, the EC50 was not above 100 nM in the experiment on HUVEC; 100 to 1000 nM in the experiment with HuH7 cell line; 100 to 1000 nM with HeLa cell line (72 h); not above 100 nM with BxPC-3 cell line; not above 100 nM in the experiment with MDA-MB-231 cell line; 100 to 1000 nM in the experiment on A549 cell line. The inhibition at 0.1 µM on EGFR (ErbB1) T790M L858R, on EGFR (ErbB1), on KDR (VEGFR2), at BRAF, on PDGFRA (PDGFR alpha) and at SRC was not below 50% throughout. The inhibition at 0.1 µM on FGFR2 is not below 50%.

Turning to `CNC(=O)c1cc2cc(NCc3cc(NC(=O)c4ccc(CN5CCN(C)CC5)c(C(F)(F)F)c4)ccc3C)cnc2[nH]1` [OR0751, 5-{2-Methyl-5-[4-(4-methyl-piperazin-1-ylmethyl)-3-trifluoromethyl-benzoylamino]-benzylamino}-1H-pyrrolo[2,3-b]pyridine-2-carboxylic acid methylamide], the EC50 is not above 100 nM with HRMEC cells; not above 100 nM with HT29 cell line; not above 100 nM in the experiment with HepG2 cell line; 100 to 1000 nM in the experiment on HuH6 Clone 5 cell line; 100 to 1000 nM with H1975 cell line; 100 to 1000 nM in the experiment on HuCCT1 cell line. Moreover, the concentration giving a half-maximal response (EC50) was not above 100 nM in the experiment with HUVEC; not above 100 nM with HuH7 cell line; not below 1000 nM with HeLa cell line (72 hr, MTT); not above 100 nM in the experiment with MDA-MB-231 cell line; 100 to 1000 nM with A549 cell line. Also, the inhibition at 0.1 µM at EGFR (ErbB1) T790M L858R, on EGFR (ErbB1), on KDR (VEGFR2), at BRAF, on PDGFRA (PDGFR alpha) and on SRC was not below 50% each time. Besides, the inhibition at 0.1 µM on FGFR2 was not below 50%.

On to `CNC(=O)c1cc2cc(NCc3cc(NC(=O)c4ccc(CN5CCC(N(C)C)C5)c(C(F)(F)F)c4)ccc3C)cnc2[nH]1` (centres unmarked) [OR0752, 5-{5-[4-(3-Dimethylamino-pyrrolidin-1-ylmethyl)-3-trifluoromethyl-benzoylamino]-2-methyl-benzylamino}-1H-pyrrolo[2,3-b]pyridine-2-carboxylic acid methylamide], for which the EC50 was not above 100 nM in the experiment with HRMEC cells; 100 to 1000 nM with HT29 cell line; 100 to 1000 nM in the experiment with HepG2 cell line; 100 to 1000 nM in the experiment with HuH6 Clone 5 cell line; 100 to 1000 nM in the experiment with H1975 cell line; 100 to 1000 nM with HuCCT1 cell line. The EC50 in the experiment on HUVEC was not above 100 nM; in the experiment on HuH7 cell line it was 100 to 1000 nM; with A549 cell line, 100 to 1000 nM. Also, the inhibition at 0.1 µM at EGFR (ErbB1) T790M L858R, on EGFR (ErbB1), on KDR (VEGFR2), on BRAF, at PDGFRA (PDGFR alpha) and on SRC was not below 50% in each case. In addition, the inhibition at 0.1 µM on FGFR2 is not below 50%.

The record behind these values is patent publication US9403823B2, “Protein kinase inhibitors” (ORIBASE PHARMA, priority 2012, dated 2016).
